# Measurements from ChEMBL document CHEMBL3132842, “Synthesis of metergoline analogues and their evaluation as antiplasmodial agents” (Medchemcomm, 2014).
# Experiments:
# CHO = assay: Cytotoxicity against CHO cells by MTT assay; assay type: cell-based; details: Cricetulus griseus
# Plasmodium falciparum [1] = assay: Antiplasmodial activity against chloroquine-sensitive Plasmodium falciparum NF54 assessed as reduction in parasite growth by parasite lactate dehydrogenase assay; assay type: functional, organism-based
# [2] = Selectivity index, ratio of IC50 for CHO cells to IC50 for chloroquine-sensitive Plasmodium falciparum NF54; assay type: toxicity, cell-based; details: hamster, read-out: Ratio IC50
# Plasmodium falciparum [3] = assay: Antiplasmodial activity against Plasmodium falciparum after 48 hrs by NIH quantitative high throughput screen assay; assay type: functional, organism-based
Compound,IC50 (CHO) [µM],IC50 (Plasmodium falciparum [1]),selectivity ratio [2],IC50 (Plasmodium falciparum [3]) [µM]
CN(C)c1ccc(C(=O)NC[C@@H]2C[C@@H]3c4cccc5c4c(cn5C)C[C@H]3N(C)C2)cc1,132,33.8 µM,4,–
CCC(=O)NC[C@@H]1C[C@@H]2c3cccc4c3c(cn4C)C[C@H]2N(C)C1,–,40.3 µM,–,–
CN1C[C@H](CN)C[C@@H]2c3cccc4c3c(cn4C)C[C@H]21,26.1,3.6 µM,7,–
CSc1ccc(C(=O)NC[C@@H]2C[C@@H]3c4cccc5c4c(cn5C)C[C@H]3N(C)C2)cc1,6,4.7 µM,1,–
CN1C[C@H](CNC(=O)C2CCCCN2)C[C@@H]2c3cccc4c3c(cn4C)C[C@H]21 (stereo not given in full),16.6,1.23 µM,13,–
CN1C[C@H](CNC(=O)c2ccc(OC(F)(F)F)cc2)C[C@@H]2c3cccc4c3c(cn4C)C[C@H]21,12.8,4.2 µM,3,–
CN1C[C@H](CNC(=O)c2ccc(Cl)cc2)C[C@@H]2c3cccc4c3c(cn4C)C[C@H]21,4.3,1.3 µM,3,–
CN1C[C@H](CNC(=O)c2ccccc2)C[C@@H]2c3cccc4c3c(cn4C)C[C@H]21,27,24.4 µM,1,–
CN1C[C@H](CNC(=O)c2ccc(S(C)(=O)=O)cc2)C[C@@H]2c3cccc4c3c(cn4C)C[C@H]21,222,14.2 µM,16,–
CN1C[C@H](CNC(=O)c2ccc(Cl)c(Cl)c2)C[C@@H]2c3cccc4c3c(cn4C)C[C@H]21,3.8,4.8 µM,1,–
CN1C[C@H](CNC(=O)c2ccc(F)cc2)C[C@@H]2c3cccc4c3c(cn4C)C[C@H]21,7.3,12.5 µM,0.6,–
CN1C[C@H](CNC(=O)c2cnccn2)C[C@@H]2c3cccc4c3c(cn4C)C[C@H]21,164,8.4 µM,20,–
CCc1ccc(C(=O)NC[C@@H]2C[C@@H]3c4cccc5c4c(cn5C)C[C@H]3N(C)C2)cc1,5.6,4.3 µM,1,–
CCCCCCCCCC(=O)NC[C@@H]1C[C@@H]2c3cccc4c3c(cn4C)C[C@H]2N(C)C1,86.6,5.2 µM,17,–
CN1C[C@H](CNC(=O)C2CCCC2)C[C@@H]2c3cccc4c3c(cn4C)C[C@H]21,144,4.3 µM,33,–
CN1C[C@H](CNC(=O)OCc2ccccc2)C[C@@H]2c3cccc4c3c(cn4C)C[C@H]21 [METERGOLINE],16.6,3.7 µM,4.5,7.4
CN1C[C@H](CNC(=O)c2ccc([N+](=O)[O-])cc2)C[C@@H]2c3cccc4c3c(cn4C)C[C@H]21,5,0.5 µM,11,–
CN1C[C@H](CNC(=O)c2ccc(C(F)(F)F)cc2)C[C@@H]2c3cccc4c3c(cn4C)C[C@H]21,4.9,2.7 µM,2,–
CN1C[C@H](CNC(=O)c2ccccc2Cl)C[C@@H]2c3cccc4c3c(cn4C)C[C@H]21,25,14.6 µM,2,–
CN1C[C@H](CNC(=O)c2ccc(C#N)cc2)C[C@@H]2c3cccc4c3c(cn4C)C[C@H]21,104,0.6 µM,188,–

Compound,IC50 (CHO) [µM],IC50 (Plasmodium falciparum [1]),selectivity ratio [2],IC50 (Plasmodium falciparum [3]) [µM]
C[C@H]1[C@H](OC(=O)CCC(=O)O)O[C@@H]2O[C@@]3(C)CC[C@H]4[C@H](C)CC[C@@H]1[C@@]24OO3 [ARTESUNATE],–,2.8 ng/mL,–,–
CCCCCCC(=O)NC[C@@H]1C[C@@H]2c3cccc4c3c(cn4C)C[C@H]2N(C)C1,8.9,9.1 µM,1,–
CCCC(=O)NC[C@@H]1C[C@@H]2c3cccc4c3c(cn4C)C[C@H]2N(C)C1,–,32.1 µM,–,–
CN1C[C@H](CNC(=O)c2cccnc2)C[C@@H]2c3cccc4c3c(cn4C)C[C@H]21,162,17.4 µM,9,–
CCCCC(=O)NC[C@@H]1C[C@@H]2c3cccc4c3c(cn4C)C[C@H]2N(C)C1,105,18.7 µM,6,–
CN1C[C@H](CNC(=O)c2ccc(Br)cc2)C[C@@H]2c3cccc4c3c(cn4C)C[C@H]21,5.1,2.6 µM,2,–
CN1C[C@H](CNC(=O)c2ccncn2)C[C@@H]2c3cccc4c3c(cn4C)C[C@H]21,–,27.4 µM,–,–
CN1C[C@H](CNC(=O)C(C)(C)C)C[C@@H]2c3cccc4c3c(cn4C)C[C@H]21,–,89.1 µM,–,–
COc1ccc(C(=O)NC[C@@H]2C[C@@H]3c4cccc5c4c(cn5C)C[C@H]3N(C)C2)cc1,7.4,8.4 µM,1,–
CN1C[C@H](CNC(=O)c2ccc(Cl)cc2Cl)C[C@@H]2c3cccc4c3c(cn4C)C[C@H]21,7.5,8.3 µM,1,–
CC(=O)NC[C@@H]1C[C@@H]2c3cccc4c3c(cn4C)C[C@H]2N(C)C1,–,199 µM,–,–
CN1C[C@H](CNC(=O)c2ccc(I)cc2)C[C@@H]2c3cccc4c3c(cn4C)C[C@H]21,5.5,3 µM,2,–
CCCCc1ccc(C(=O)NC[C@@H]2C[C@@H]3c4cccc5c4c(cn5C)C[C@H]3N(C)C2)cc1,14.5,2 µM,7,–
CC(=O)c1ccc(C(=O)NC[C@@H]2C[C@@H]3c4cccc5c4c(cn5C)C[C@H]3N(C)C2)cc1,152,12.3 µM,12,–
CC[C@H]1CN2CCc3cc(OC)c(OC)cc3[C@@H]2C[C@@H]1C[C@H]1NCCc2cc(OC)c(OC)cc21 [EMETINE],0.05,–,–,–
CCCCCCCC(=O)NC[C@@H]1C[C@@H]2c3cccc4c3c(cn4C)C[C@H]2N(C)C1,4.6,3.9 µM,1,–
CN1C[C@H](CNC(=O)c2ccncc2)C[C@@H]2c3cccc4c3c(cn4C)C[C@H]21,161,17.5 µM,9,–
CN1C[C@H](CNC(=O)c2cccc(Cl)c2)C[C@@H]2c3cccc4c3c(cn4C)C[C@H]21,4.7,4.9 µM,1,–
CN1C[C@H](CNC(=O)c2ccccn2)C[C@@H]2c3cccc4c3c(cn4C)C[C@H]21,112,11.4 µM,10,–
CCCCCC(=O)NC[C@@H]1C[C@@H]2c3cccc4c3c(cn4C)C[C@H]2N(C)C1,–,28.6 µM,–,–
